Consider 20 substances from the OligoGym collection.

Oligonucleotides are given in HELM: sugar(base)linkage, 5' to 3'; d 2'-deoxyribose, r ribose, m 2'-O-methylribose, p phosphate. ss, as = sense and antisense strand
Note: test concentration or dose not given here.

In the data set the target is Mmp7 (rat). The data set can be described thus: reporter assay of Huesken 2005. The following applies: siRNA.
As to “RNA1{r(U)p.r(G)p.r(A)p.r(G)p.r(U)p.r(A)p.r(C)p.r(U)p.r(G)p.r(G)p.r(A)p.r(C)p.r(G)p.r(G)p.r(A)p.r(U)p.r(G)p.r(G)p.r(U)p.d(T)p.d(T)}|RNA2{r(A)p.r(C)p.r(C)p.r(A)p.r(U)p.r(C)p.r(C)p.r(G)p.r(U)p.r(C)p.r(C)p.r(A)p.r(G)p.r(U)p.r(A)p.r(C)p.r(U)p.r(C)p.r(A)p.d(T)p.d(C)}$$$RNA1{StrandType:ss}|RNA2{StrandType:as}$”, the normalised inhibition (eCFP-eYFP dual reporter) came to 63.1%.

Take “RNA1{r(G)p.r(C)p.r(A)p.r(G)p.r(A)p.r(A)p.r(U)p.r(U)p.r(A)p.r(U)p.r(C)p.r(U)p.r(U)p.r(A)p.r(G)p.r(G)p.r(A)p.r(A)p.r(A)p.d(T)p.d(T)}|RNA2{r(U)p.r(U)p.r(U)p.r(C)p.r(C)p.r(U)p.r(A)p.r(A)p.r(G)p.r(A)p.r(U)p.r(A)p.r(A)p.r(U)p.r(U)p.r(C)p.r(U)p.r(G)p.r(C)p.d(G)p.d(C)}$$$RNA1{StrandType:ss}|RNA2{StrandType:as}$”: the normalised inhibition (eCFP-eYFP dual reporter) came out at 132%.

Consider “RNA1{r(A)p.r(G)p.r(A)p.r(C)p.r(A)p.r(U)p.r(C)p.r(A)p.r(U)p.r(A)p.r(A)p.r(U)p.r(U)p.r(G)p.r(G)p.r(C)p.r(U)p.r(U)p.r(C)p.d(T)p.d(T)}|RNA2{r(G)p.r(A)p.r(A)p.r(G)p.r(C)p.r(C)p.r(A)p.r(A)p.r(U)p.r(U)p.r(A)p.r(U)p.r(G)p.r(A)p.r(U)p.r(G)p.r(U)p.r(C)p.r(U)p.d(G)p.d(C)}$$$RNA1{StrandType:ss}|RNA2{StrandType:as}$”, for which the normalised inhibition (eCFP-eYFP dual reporter) was 99.4%.

Turning to “RNA1{r(C)p.r(C)p.r(A)p.r(G)p.r(G)p.r(A)p.r(A)p.r(G)p.r(C)p.r(C)p.r(G)p.r(G)p.r(A)p.r(G)p.r(A)p.r(A)p.r(G)p.r(U)p.r(G)p.d(T)p.d(T)}|RNA2{r(C)p.r(A)p.r(C)p.r(U)p.r(U)p.r(C)p.r(U)p.r(C)p.r(C)p.r(G)p.r(G)p.r(C)p.r(U)p.r(U)p.r(C)p.r(C)p.r(U)p.r(G)p.r(G)p.d(G)p.d(A)}$$$RNA1{StrandType:ss}|RNA2{StrandType:as}$”, the normalised inhibition (eCFP-eYFP dual reporter) was 72.2%.

With “RNA1{r(C)p.r(U)p.r(A)p.r(C)p.r(C)p.r(U)p.r(A)p.r(U)p.r(C)p.r(A)p.r(A)p.r(G)p.r(G)p.r(A)p.r(G)p.r(A)p.r(U)p.r(C)p.r(A)p.d(T)p.d(T)}|RNA2{r(U)p.r(G)p.r(A)p.r(U)p.r(C)p.r(U)p.r(C)p.r(C)p.r(U)p.r(U)p.r(G)p.r(A)p.r(U)p.r(A)p.r(G)p.r(G)p.r(U)p.r(A)p.r(G)p.d(G)p.d(G)}$$$RNA1{StrandType:ss}|RNA2{StrandType:as}$”, the normalised inhibition (eCFP-eYFP dual reporter) was found to be 114%.

Turning to “RNA1{r(G)p.r(G)p.r(G)p.r(G)p.r(C)p.r(C)p.r(A)p.r(G)p.r(G)p.r(C)p.r(C)p.r(U)p.r(C)p.r(G)p.r(G)p.r(C)p.r(G)p.r(G)p.r(A)p.d(T)p.d(T)}|RNA2{r(U)p.r(C)p.r(C)p.r(G)p.r(C)p.r(C)p.r(G)p.r(A)p.r(G)p.r(G)p.r(C)p.r(C)p.r(U)p.r(G)p.r(G)p.r(C)p.r(C)p.r(C)p.r(C)p.d(G)p.d(G)}$$$RNA1{StrandType:ss}|RNA2{StrandType:as}$”, the normalised inhibition (eCFP-eYFP dual reporter) worked out at 50.8%.

In the case of “RNA1{r(G)p.r(C)p.r(C)p.r(A)p.r(C)p.r(U)p.r(C)p.r(U)p.r(C)p.r(U)p.r(G)p.r(G)p.r(G)p.r(U)p.r(C)p.r(U)p.r(G)p.r(G)p.r(G)p.d(T)p.d(T)}|RNA2{r(C)p.r(C)p.r(C)p.r(A)p.r(G)p.r(A)p.r(C)p.r(C)p.r(C)p.r(A)p.r(G)p.r(A)p.r(G)p.r(A)p.r(G)p.r(U)p.r(G)p.r(G)p.r(C)p.d(C)p.d(A)}$$$RNA1{StrandType:ss}|RNA2{StrandType:as}$”, the normalised inhibition (eCFP-eYFP dual reporter) was found to be 63.3%.

In the case of “RNA1{r(A)p.r(A)p.r(G)p.r(G)p.r(C)p.r(C)p.r(A)p.r(C)p.r(C)p.r(A)p.r(G)p.r(U)p.r(G)p.r(C)p.r(A)p.r(G)p.r(U)p.r(G)p.r(G)p.d(T)p.d(T)}|RNA2{r(C)p.r(C)p.r(A)p.r(C)p.r(U)p.r(G)p.r(C)p.r(A)p.r(C)p.r(U)p.r(G)p.r(G)p.r(U)p.r(G)p.r(G)p.r(C)p.r(C)p.r(U)p.r(U)p.d(C)p.d(T)}$$$RNA1{StrandType:ss}|RNA2{StrandType:as}$”, the normalised inhibition (eCFP-eYFP dual reporter) stood at 22.3%.

Turning to “RNA1{r(A)p.r(A)p.r(G)p.r(U)p.r(G)p.r(A)p.r(C)p.r(C)p.r(G)p.r(C)p.r(A)p.r(C)p.r(U)p.r(U)p.r(C)p.r(A)p.r(G)p.r(U)p.r(G)p.d(T)p.d(T)}|RNA2{r(C)p.r(A)p.r(C)p.r(U)p.r(G)p.r(A)p.r(A)p.r(G)p.r(U)p.r(G)p.r(C)p.r(G)p.r(G)p.r(U)p.r(C)p.r(A)p.r(C)p.r(U)p.r(U)p.d(C)p.d(T)}$$$RNA1{StrandType:ss}|RNA2{StrandType:as}$”, the normalised inhibition (eCFP-eYFP dual reporter) was determined as 79.7%.

With “RNA1{r(G)p.r(U)p.r(G)p.r(U)p.r(G)p.r(G)p.r(A)p.r(G)p.r(U)p.r(G)p.r(C)p.r(C)p.r(A)p.r(G)p.r(A)p.r(U)p.r(G)p.r(U)p.r(U)p.d(T)p.d(T)}|RNA2{r(A)p.r(A)p.r(C)p.r(A)p.r(U)p.r(C)p.r(U)p.r(G)p.r(G)p.r(C)p.r(A)p.r(C)p.r(U)p.r(C)p.r(C)p.r(A)p.r(C)p.r(A)p.r(C)p.d(C)p.d(T)}$$$RNA1{StrandType:ss}|RNA2{StrandType:as}$”, the normalised inhibition (eCFP-eYFP dual reporter) was 93.9%.

Regarding “RNA1{r(C)p.r(C)p.r(A)p.r(G)p.r(G)p.r(U)p.r(G)p.r(U)p.r(G)p.r(G)p.r(A)p.r(G)p.r(U)p.r(G)p.r(C)p.r(C)p.r(A)p.r(G)p.r(A)p.d(T)p.d(T)}|RNA2{r(U)p.r(C)p.r(U)p.r(G)p.r(G)p.r(C)p.r(A)p.r(C)p.r(U)p.r(C)p.r(C)p.r(A)p.r(C)p.r(A)p.r(C)p.r(C)p.r(U)p.r(G)p.r(G)p.d(G)p.d(C)}$$$RNA1{StrandType:ss}|RNA2{StrandType:as}$”, the normalised inhibition (eCFP-eYFP dual reporter) came to 85.6%.

For “RNA1{r(U)p.r(C)p.r(U)p.r(A)p.r(A)p.r(A)p.r(A)p.r(C)p.r(A)p.r(A)p.r(A)p.r(G)p.r(A)p.r(A)p.r(G)p.r(G)p.r(C)p.r(C)p.r(A)p.d(T)p.d(T)}|RNA2{r(U)p.r(G)p.r(G)p.r(C)p.r(C)p.r(U)p.r(U)p.r(C)p.r(U)p.r(U)p.r(U)p.r(G)p.r(U)p.r(U)p.r(U)p.r(U)p.r(A)p.r(G)p.r(A)p.d(G)p.d(T)}$$$RNA1{StrandType:ss}|RNA2{StrandType:as}$”, the normalised inhibition (eCFP-eYFP dual reporter) was 95.7%.

As for “RNA1{r(A)p.r(C)p.r(U)p.r(C)p.r(U)p.r(U)p.r(C)p.r(U)p.r(G)p.r(U)p.r(U)p.r(C)p.r(C)p.r(C)p.r(A)p.r(G)p.r(U)p.r(U)p.r(C)p.d(T)p.d(T)}|RNA2{r(G)p.r(A)p.r(A)p.r(C)p.r(U)p.r(G)p.r(G)p.r(G)p.r(A)p.r(A)p.r(C)p.r(A)p.r(G)p.r(A)p.r(A)p.r(G)p.r(A)p.r(G)p.r(U)p.d(G)p.d(A)}$$$RNA1{StrandType:ss}|RNA2{StrandType:as}$”, the normalised inhibition (eCFP-eYFP dual reporter) stood at 81.4%.

“RNA1{r(A)p.r(A)p.r(C)p.r(U)p.r(U)p.r(C)p.r(C)p.r(C)p.r(A)p.r(U)p.r(U)p.r(U)p.r(G)p.r(A)p.r(U)p.r(G)p.r(G)p.r(G)p.r(C)p.d(T)p.d(T)}|RNA2{r(G)p.r(C)p.r(C)p.r(C)p.r(A)p.r(U)p.r(C)p.r(A)p.r(A)p.r(A)p.r(U)p.r(G)p.r(G)p.r(G)p.r(A)p.r(A)p.r(G)p.r(U)p.r(U)p.d(G)p.d(T)}$$$RNA1{StrandType:ss}|RNA2{StrandType:as}$”: the normalised inhibition (eCFP-eYFP dual reporter) was 0.2%.

As for “RNA1{r(G)p.r(A)p.r(A)p.r(A)p.r(C)p.r(A)p.r(C)p.r(U)p.r(C)p.r(U)p.r(A)p.r(G)p.r(G)p.r(C)p.r(C)p.r(A)p.r(U)p.r(G)p.r(C)p.d(T)p.d(T)}|RNA2{r(G)p.r(C)p.r(A)p.r(U)p.r(G)p.r(G)p.r(C)p.r(C)p.r(U)p.r(A)p.r(G)p.r(A)p.r(G)p.r(U)p.r(G)p.r(U)p.r(U)p.r(U)p.r(C)p.d(C)p.d(T)}$$$RNA1{StrandType:ss}|RNA2{StrandType:as}$”, the normalised inhibition (eCFP-eYFP dual reporter) was determined as 53.7%.

Consider “RNA1{r(U)p.r(A)p.r(G)p.r(G)p.r(A)p.r(A)p.r(A)p.r(U)p.r(U)p.r(U)p.r(U)p.r(A)p.r(C)p.r(C)p.r(U)p.r(U)p.r(C)p.r(A)p.r(C)p.d(T)p.d(T)}|RNA2{r(G)p.r(U)p.r(G)p.r(A)p.r(A)p.r(G)p.r(G)p.r(U)p.r(A)p.r(A)p.r(A)p.r(A)p.r(U)p.r(U)p.r(U)p.r(C)p.r(C)p.r(U)p.r(A)p.d(A)p.d(G)}$$$RNA1{StrandType:ss}|RNA2{StrandType:as}$”, for which the normalised inhibition (eCFP-eYFP dual reporter) stood at 86.2%.

For “RNA1{r(A)p.r(G)p.r(G)p.r(C)p.r(G)p.r(U)p.r(G)p.r(A)p.r(A)p.r(C)p.r(U)p.r(U)p.r(C)p.r(C)p.r(U)p.r(G)p.r(U)p.r(U)p.r(U)p.d(T)p.d(T)}|RNA2{r(A)p.r(A)p.r(A)p.r(C)p.r(A)p.r(G)p.r(G)p.r(A)p.r(A)p.r(G)p.r(U)p.r(U)p.r(C)p.r(A)p.r(C)p.r(G)p.r(C)p.r(C)p.r(U)p.d(G)p.d(A)}$$$RNA1{StrandType:ss}|RNA2{StrandType:as}$”, the normalised inhibition (eCFP-eYFP dual reporter) worked out at 91.1%.

As for “RNA1{r(G)p.r(G)p.r(G)p.r(A)p.r(A)p.r(C)p.r(A)p.r(G)p.r(G)p.r(C)p.r(G)p.r(C)p.r(A)p.r(G)p.r(A)p.r(A)p.r(U)p.r(U)p.r(A)p.d(T)p.d(T)}|RNA2{r(U)p.r(A)p.r(A)p.r(U)p.r(U)p.r(C)p.r(U)p.r(G)p.r(C)p.r(G)p.r(C)p.r(C)p.r(U)p.r(G)p.r(U)p.r(U)p.r(C)p.r(C)p.r(C)p.d(A)p.d(C)}$$$RNA1{StrandType:ss}|RNA2{StrandType:as}$”, the normalised inhibition (eCFP-eYFP dual reporter) was found to be 93.6%.

Regarding “RNA1{r(A)p.r(G)p.r(A)p.r(A)p.r(G)p.r(U)p.r(G)p.r(A)p.r(C)p.r(C)p.r(G)p.r(C)p.r(A)p.r(C)p.r(U)p.r(U)p.r(C)p.r(A)p.r(G)p.d(T)p.d(T)}|RNA2{r(C)p.r(U)p.r(G)p.r(A)p.r(A)p.r(G)p.r(U)p.r(G)p.r(C)p.r(G)p.r(G)p.r(U)p.r(C)p.r(A)p.r(C)p.r(U)p.r(U)p.r(C)p.r(U)p.d(C)p.d(C)}$$$RNA1{StrandType:ss}|RNA2{StrandType:as}$”, the normalised inhibition (eCFP-eYFP dual reporter) turned out to be 32.9%.

As for “RNA1{r(U)p.r(G)p.r(G)p.r(U)p.r(G)p.r(A)p.r(G)p.r(G)p.r(A)p.r(C)p.r(U)p.r(C)p.r(A)p.r(G)p.r(G)p.r(C)p.r(G)p.r(U)p.r(G)p.d(T)p.d(T)}|RNA2{r(C)p.r(A)p.r(C)p.r(G)p.r(C)p.r(C)p.r(U)p.r(G)p.r(A)p.r(G)p.r(U)p.r(C)p.r(C)p.r(U)p.r(C)p.r(A)p.r(C)p.r(C)p.r(A)p.d(T)p.d(C)}$$$RNA1{StrandType:ss}|RNA2{StrandType:as}$”, the normalised inhibition (eCFP-eYFP dual reporter) is 69.8%.
